One data set has as its system normal human melanocytes. The data set can be described thus: Depigmenting activity (reduction of melanin production) in normal human melanocytes in vitro. Format: cell-based. Particulars: Melanocyte, 72 hours incubation, optical density of melanin, maximum concentration tested 200 μM, read-out: IC50 (concentration at which a 50% decrease in melanin synthesis is achieved). The method, then: The measurement of the depigmenting activity (reduction of melanin production) of compounds of formula (I) was performed by assaying normal human melanocytes in vitro as follows.
First of all, normal human melanocytes are cultured and dispensed into wells. After 24 hours, the culture medium was replaced with a medium containing compounds of formula (I) to be evaluated. The cells were incubated 72 hours before measurement of the final optical density, which measures the amount of melanin produced by the melanocytes. A dose effect is performed using a wide concentration range of the compounds evaluated. Thus, by making the concentrations and the melanin measurements correspond, it is possible to determine an IC50 in μM: concentration at which a 50% decrease in melanin synthesis is achieved.
Various test campaigns were conducted and the results collated in the table below.

Data set [1] deals with coculture of keratinocytes and melanocytes. The data set can be described thus: Coculture experiment: melanogenesis-modulating effect and cytotoxicity. In kind it is cell-based. Particulars: for IC50: melanin optical density, read-out: IC50 (concentration for which 50% of the melanin synthesis is inhibited). On the procedure: The melanogenesis-modulating effect of compound 1 was measured according to the method described in patent FR-A-2734825, and also in the article by R. Schmidt, P. Krien and M. Régnier, Anal. Biochem., 235(2), 113-18, 1996. This test is performed on a coculture of keratinocytes and melanocytes.
The following were determined for the test compound: • the cytotoxicity, • the inhibitory activity on melanin synthesis, by estimating the melanin optical density.
The IC50 values (concentration for which 50% of the melanin synthesis is inhibited) were determined.

Data set [2] has as its system pigmented reconstructed epidermis. The data set can be described thus: Depigmenting activity on pigmented reconstructed epidermis (melanin quantified by image analysis, Fontana Masson). Format: cell-based, human. Particulars: 300 μM in DMSO, control DMSO, Mann-Whitney test, pValue<0.05. On the procedure: Compositions comprising 300 μM of compound 1 in DMSO were applied to samples of pigmented reconstructed epidermis (cf. EP 1 878 790). The control is DMSO.
The melanin was quantified by image analysis on histological slices after staining with Fontana Masson dye. Each sample of coloured epidermis is photographed over its entire length using a camera connected to a microscope. The melanin is thresholded and the number of melanin pixels is measured in each field using automated image analysis software. A non-parametric statistical test is performed in order to determine the significance of the measurements (Mann-Whitney test, see FIG. 1).
The pigmented reconstructed epidermis standard study model was published by: Regnier M, Duval C, Galey J B, Philippe M, Lagrange A, Tuloup R, Schmidt R, Cellular and Molecular Biology, 1999, 45, 7, 969-980: “Keratinocyte-Melanocyte co-cultures and pigmented reconstructed human epidermis: models to study modulation of melanogenesis”.

A value given as a limit tells only on which side of the number the result lay.

Data on 14 molecules can be found in US20210000727A1, “DITHIAZOCANE COMPOUNDS FOR THE COSMETIC USE THEREOF” (L'OREAL, priority 2017, published 2021).

`COCCOCCOC(=O)C1CSSCC(C)(C)C(=O)N1` (stereo not shown) [Compound 10′, 2-(2-methoxyethoxy)ethyl 7,7-dimethyl-6-oxo-1,2,5-dithiazocane-4-carboxylate]: the IC50 with normal human melanocytes stood at 5.26 µM. In addition, in data set [1], the cytotoxicity entry was “non-cytotoxic” and the IC50 was 7.62 µM.

For `CN(C)C(=O)C1CSSCC(C)(C)C(=O)N1` (stereo not shown) [Compound 4′, N,N,7,7-tetramethyl-6-oxo-1,2,5-dithiazocane-4-carboxamide], in the data set with normal human melanocytes, the IC50 was 4.23 µM.

Turning to `COCC(C)OCC(C)OCC(C)OC(=O)C1CSSCC(C)(C)C(=O)N1` (stereo not shown) [Compound 11′, 1-({1-[(1-methoxypropan-2-yl)oxy]propan-2-yl}oxy)propan-2-yl 7,7-dimethyl-6-oxo-1,2,5-dithiazocane-4-carboxylate], in the data set on normal human melanocytes, the IC50 stood at 10.7 µM.

With `CC1(C)CSSCC(C(=O)OCC(O)CO)NC1=O` (stereo not shown) [Compound 18′, 2,3-dihydroxypropyl 7,7-dimethyl-6-oxo-1,2,5-dithiazocane-4-carboxylate], in the data set on normal human melanocytes, the IC50 was found to be 9.8 µM.

In the case of `CC1(C)CSSCC(C(N)=O)NC1=O` (stereo not shown) [Compound 3′, 7,7-dimethyl-6-oxo-1,2,5-dithiazocane-4-carboxamide], in the data set on normal human melanocytes, the IC50 came to 2.35 µM.

Take `CC1(C)CSSC[C@@H](C(=O)O)NC1=O` [Compound 1, 7,7-dimethyl-6-oxo-1,2,5-dithiazocane-4-(R)-carboxylic acid]: in the data set on normal human melanocytes, the IC50 turned out to be 62.5 µM. For the same molecule, in data set [1], the cytotoxicity entry was “non-cytotoxic” and the IC50 amounted to 9.6 µM. The “depigmenting activity (melanin quantified by image analysis)” value in data set [2] is reported as “Significant depigmenting activity”.

`CCOC(=O)C(Cc1ccccc1)NC(=O)C1CSSCC(C)(C)C(=O)N1` (stereo not shown) [Compound 9′, ethyl N-[(7,7-dimethyl-6-oxo-1,2,5-dithiazocan-4-yl)carbonyl]phenylalaninate]: the IC50 in the data set on normal human melanocytes stood at 20.8 µM.

Consider `CC1(C)CSSCC(C(=O)NCC(=O)O)NC1=O` (stereo not shown) [Compound 12′, N-[(7,7-dimethyl-6-oxo-1,2,5-dithiazocan-4-yl)carbonyl]glycine], for which the IC50 with normal human melanocytes came to 63.8 µM.

With `COC(=O)[C@@H]1CSSCC(C)(C)C(=O)N1` [Compound 2, methyl 7,7-dimethyl-6-oxo-1,2,5-dithiazocane-4(R)-carboxylate], the IC50 in the data set with normal human melanocytes is 13.6 µM. For the same molecule, in data set [1], the cytotoxicity result is listed as “non-cytotoxic” and the IC50 turned out to be 0.74 µM.

Take `CC1(C)CSSCC(C(=O)NCCO)NC1=O` (stereo not shown) [Compound 7′, N-(2-hydroxyethyl)-7,7-dimethyl-6-oxo-1,2,5-dithiazocane-4-carboxamide]: the IC50 in the data set on normal human melanocytes is less than 0.4 µM; in data set [1] it was 1.04 µM. Besides, the cytotoxicity result in data set [1] is on record as “non-cytotoxic”.

In the case of `CCCCCCCNC(=O)C1CSSCC(C)(C)C(=O)N1` (stereo not shown) [Compound 13′, N-heptyl-7,7-dimethyl-6-oxo-1,2,5-dithiazocane-4-carboxamide], the IC50 with normal human melanocytes turned out to be 0.66 µM.

With `CCOC(=O)C1CSSCC(C)(C)C(=O)N1` (stereo not shown) [Compound 5′, ethyl 7,7-dimethyl-6-oxo-1,2,5-dithiazocane-4-carboxylate], in data set [1], the cytotoxicity entry is “non-cytotoxic” and the IC50 turned out to be 0.79 µM.

`CC(C)OC(=O)C1CSSCC(C)(C)C(=O)N1` (stereo not shown) [Compound 6′, propan-2-yl 7,7-dimethyl-6-oxo-1,2,5-dithiazocane-4-carboxylate]: the IC50 in the data set on normal human melanocytes turned out to be 1.9 µM. Further, in data set [1], the cytotoxicity result is given as “non-cytotoxic” and the IC50 amounted to 1.57 µM.

Take `CCOC(=O)CNC(=O)C1CSSCC(C)(C)C(=O)N1` (stereo not shown) [Compound 8′, ethyl N-[(7,7-dimethyl-6-oxo-1,2,5-dithiazocan-4-yl)carbonyl]glycinate]: the IC50 with normal human melanocytes was 0.87 µM. Besides, in data set [1], the cytotoxicity entry is given as “non-cytotoxic” and the IC50 is 1.23 µM.
